Reference: US5800838A, “Composition that inhibits or destroys at least one unicellular living organism containing fluorine F- and Lithium li+” (priority 1987, dated 1998)
Converted amounts (≈) assume the structure as drawn. Where two headings read alike, the source gives them in different places.

Legend:
[1] = test system: Haemophilus influenzae; test: Antibiotic activity on hospital strains normally resistant to amoxicillin; assay type: cell-based
[2] = test system: Staphylococcus aureus; test: as above; assay type: cell-based; settings: read-out: 100% inhibitory concentration
[3] = test system: β-Haemolytic streptococcus; test: as above; assay type: cell-based; settings: read-out: 100% inhibitory concentration
[4] = test system: Haemophilus influenzae producing β-lactamase; test: Antibiotic activity of amoxicillin on hospital strains producing β-lactamase (Example 22); settings: 4 ppm amoxicillin in the presence of 1 ppm clavulanic acid
[5] = test system: Escherichia coli (TEM plasmid); test: microbe, parasite or virus in culture; assay type: cell-based
[6] = test system: staphylococcus aeurus; assay type: cell-based; settings: Fli 4 ppm
Experimental: Strains Gram+ and Gram- (wild-type hospital) having a resistant phenotype vis a vis standard firstly and secondly used antibiotherapy were experimented on activated antibiotics.
250 experiments were conducted on the following strains: Streptococcus group B, C, D, F, G, Staphylococcus aureus, Staphylococcus epidermitis, Klebsiella pneumoniae, Klebsiella spirochete, Klebsiella oxytoca, Proteus mirabilis, Serratia marcescens, Escherichia coli, Citrobacter freundii, Enterobacter cloacae, Enterobacter calcoaceticus, Salmonella spirochete, Salmonella typhimurium, Pseudomonas aeruginosa, Haemophilus influenzae, Haemophilus sphrophilus, Acinetobacter calcoaeticus. […]

[7] = test system: Klebsiella pneumoniae; test: Antibiotic activity on hospital strains normally resistant to amoxicillin; assay type: cell-based; settings: read-out: 100% inhibitory concentration
[8] = test system: Pseudomonas aeruginosa; test: MIC of antibiotics by microdilution in liquid medium on plates (Example 18); assay type: cell-based; settings: Pseudomonas aeruginosa, read-out: MIC (average MIC value)
Experimental: The unicellular living organism chosen for the trials is Pseudomonas aeruginosa (wild-type strain originating from hospital sources).
The same methodology as for Examples 11 and 12 was follows. Bacteriostatic analyses were performed with a number of antibiotics belonging to benzylpenicillins, and aminopenicillins, and first and second generation cephalosporins, namely:
The determination of the MIC was carried out by the microdilution method in liquid medium on plates. Aqueous solutions of each antibiotic are prepared in MUELLER HINION broth, to obtain dilutions in a geometric ratio of 2. The solvent is sterile double-distilled water.
The preparation of the bacterial inoculum is made with a culture of Pseudomonas aeruginosa, with agitation on a water bath at 37° C. for 4 to 6 hours, giving 10^6 bacteria/ml.
Three trials were performed per antibiotic and per bacterial inoculum. The trials were performed first with the antibiotics alone (trials a).sctn., and then with the addition of a dose of 1 mg/l of an aqueous solution of lithium fluoride (trials b).sctn. to the dilution of each one in every cup of every plate.

[9] = test system: Proteus morganii; test: Concentrations of cefotaxime inhibiting 50% of the strains; assay type: cell-based; settings: Morganella morganii; alone; F20; read-out: 50% inhibitory concentration
Experimental: (§1) The activity of CEFOTAXIME was tested, alone and then in the presence of lithium fluoride, with respect to pathogenic strains other than Pseudomonas aeruginosa.
(§2) The following table expresses the concentrations (mg/l) of cefotaxime inhibiting 50% of the strains.

[10] = test system: Serratia; test: as above; assay type: cell-based
Experimental: as §1, §2

[11] = test system: Klebsiella; test: as above; assay type: cell-based
Experimental: as §1, §2

[12] = test system: Escherichia coli; test: as above; assay type: cell-based
Experimental: as §1, §2

[13] = test system: Enterobacter; test: as above; assay type: cell-based
Experimental: as §1, §2

[14] = test system: salmonella spirochete; test: "Time killing curve", optical density at 600 nm; assay type: cell-based; settings: Fli 32 ppm
Experimental: (§3) The kinetics of the bacterial growth of serratia marcescens and salmonella spirochete has been studied with the "Time killing curve" methodology, for gentamicine (64 ppm) alone, Fli (32 ppm) and gentamicine (64 ppm) in presence of Fli (32 ppm). The bacterial growth is determined by spectrophotometric reading of the optical density for a wavelength of 600 nm.
(§4) The following table illustrates the optical density (1/100) obtained: […]

[15] = test system: serratia marcescens; test: "Time killing curve", optical density at 600 nm; assay type: cell-based; settings: Fli 32 ppm
Experimental: as §3, §4

[16] = test system: Klebsiella pneumoniae; test: "chess" test, dilution in liquid medium, Trial 3; assay type: cell-based
From the text: (§5) Substance A was gentamicine
The strain was Klebsiella pneumoniae (wild-type hospital strain)

[17] = test system: pseudomonas aeruginosa and Escherichia coli; assay type: cell-based
From the text: It is known that a strain develops a resistance against an antibiotic substance with which it is left in contact, by a phenotypical mutation procedure.
This phenomena has been studied on pseudomonas aeruginosa and Escherichia coli (wild-type hospital strains) which commonly develop resistance against aminosides. The antibiotic substance choosen was thus gentamicine which is an aminoside antibiotic.
And the growth of the resistance was studied with gentamicine alone, then with gentamicine in presence of Fli.
The trial was conducted on 12 days, and the MIC of gentamicine alone and of gentamicine in presence of Fli (4 ppm) was determined each day on transportplates in liquid medium with a serie of dilution in Mueller/Hinton agar.
The MBC (Minimal Bactericide Concentration) was also determined from the solution after determination of the MIC seeded on agar adapted to the strain. The MBC is read for a percentage of survivors less than 0,20%.

[18] = test system: Pseudomonas aeruginosa; test: MIC of gentamicine, inclined agar with concentration gradient; assay type: cell-based; settings: alone; SENSIBLE strains
Experimental: (§6) The strains used were wild-type hospital strains having a resistant phenotype as regards gentamicine: pseudomonas aeruginosa, proteus mirabilis, serratia marcescens.
(§7) The phenotype of the strains was determined by diffusion in gradient on selective agar. Then, each group of strains having the same phenotype (resistant or sensible) was seeded on inclined agar having a gradient of concentration of the composition.
(§8) This methodology is explained by SZYBALSKI and BRYSON in "Selection de mutants resistant aux antibiotiques", L'antibiogramme, Vigot, p. 259-260.
(§9) The results are shown in the following table illustrating the MIC of gentamicine (aminoglycoside antibiotic).
(§10) x/y means a concentration read between x ppm and y ppm.

[19] = test system: proteus mirabilis; test: as above; assay type: cell-based; settings: alone; SENSIBLE strains
Experimental: as §6, §7, §8, §9, §10

[20] = test system: serratia marcescens; test: as above; assay type: cell-based; settings: alone; SENSIBLE strains
Experimental: as §6, §7, §8, §9, §10

[21] = test system: proteus mirabilis; test: "chess" test, dilution in liquid medium, Trial 2; assay type: cell-based
From the text: as §5
The strain was a very resistant proteus mirabilis (wild-type hospital)

[22] = test system: spermatozoa; test: SANDERS-CRAMER total spermicidal test according to IPPF standards; assay type: cell-based; settings: alone
[23] = test system: MAC COY cells; test: Cytotoxic activity with respect to MAC COY cells; settings: LiF at 1 mg/l; benzalkonium chloride under the conditions of the trials
[24] = test system: Pseudomonas aeruginosa; test: "chess" test, dilution in liquid medium, Trial 4; assay type: cell-based
From the text: as §5
The strain was pseudomonas aeruginosa (wild-type hospital resistant strain)

[25] = test system: Staphylococcus aureus
Experimental: Concentration series of two antibiotic substances A and B are prepared in the geometric ratio of 2 are combined and the following values are determined:
MIC B/A = minimal inhibiting concentration B in presence of A [formula]
The MIC of the bacteriostatic effect is read when the percentage of surviving strains is less or equal to 1%.
The combination of the substances A and B is synergistic as regards the bacteriostatic effect when FIC≤0,75. The combination is additive when FIC=1. The combination is insensible when 1<FIC≤2. The combination is antagonistic when FIC>2.
Substance A was tetracycline (concentration serie from 0,25 to 128 mg/l)
Substance B was Fli (concentration serie from 0,25 to 16 mg/l)
The strain was staphylococcus aureus (wild-type hospital resistant strain)

[26] = read-out: 100% inhibitory concentration, alone
[27] = B (Fli) in presence of A (gentamicine)
[28] = alone, wild-type hospital resistant strain

## CC1(C)S[C@@H]2[C@H](NC(=O)[C@H](N)c3ccc(O)cc3)C(=O)N2[C@H]1C(=O)O [amoxicillin]
[1]; in the presence of LiF 8 ppm, read-out: 100% inhibitory concentration
  MIC: 32 µg/mL
[1]; [26]
  MIC: > 128 µg/mL
[2]; alone
  MIC: 32 µg/mL (≈ 87.6 µM)
[2]; in the presence of LiF 8 ppm
  MIC: 8 µg/mL
[3]; alone
  MIC: 16 µg/mL (≈ 43.8 µM)
[3]; in the presence of LiF 8 ppm
  MIC: 4 µg/mL
[4]
  time to inhibition of the strains to 100%: 24 h
[5]; [26]
  MIC: > 128 µg/mL
[5]; read-out: 100% inhibitory concentration, in the presence of LiF 8 ppm
  MIC: 32 µg/mL
[6]
  phenotype in presence of Fli: the resistant phenotype was not changed
[7]; alone
  MIC: 64 µg/mL (≈ 175 µM)
[7]; in the presence of LiF 8 ppm
  MIC: 2 µg/mL

## CO/N=C(\C(=O)N[C@@H]1C(=O)N2C(C(=O)O)=C(COC(C)=O)CS[C@H]12)c1csc(N)n1 [CEFOTAXIME, cefotaxime]
[8]; + LiF 1 mg/l, strain lic R βLac^+ OXA
  MIC: 16 µg/mL
[8]; + LiF 1 mg/l, strain lic R βLac^+ PSE
  MIC: 16 µg/mL
[8]; + LiF 1 mg/l, strain lic R βLac^+ TEM
  MIC: 32 µg/mL
[8]; + LiF 1 mg/l, strain lic R βLac^+ cephalosporinase
  MIC: 256 µg/mL
[8]; + LiF 1 mg/l, strain lic S βLac^- (first column)
  MIC: 8 µg/mL
[8]; + LiF 1 mg/l, strain lic S βLac^- (second column)
  MIC: 16 µg/mL
[8]; alone, strain lic R βLac^+ OXA
  MIC: 32 µg/mL
[8]; alone, strain lic R βLac^+ PSE
  MIC: 32 µg/mL
[8]; alone, strain lic R βLac^+ TEM
  MIC: 32 µg/mL
[8]; alone, strain lic R βLac^+ cephalosporinase
  MIC: 256 µg/mL
[8]; alone, strain lic S βLac^- (first column)
  MIC: 16 µg/mL
[8]; alone, strain lic S βLac^- (second column)
  MIC: 32 µg/mL
[9]
  IC50: 0.01 µg/mL (≈ 0.022 µM)
[10]; alone, 1123, read-out: 50% inhibitory concentration
  IC50: 0.076 µg/mL (≈ 0.167 µM)
[10]; alone, MO1117, read-out: 50% inhibitory concentration
  IC50: 0.3 µg/mL (≈ 0.659 µM)
[10]; in the presence of LiF at 1 mg/l, 1123, read-out: 50% inhibitory concentration
  IC50: 0.076 µg/mL
[10]; in the presence of LiF at 1 mg/l, MO1117, read-out: 50% inhibitory concentration
  IC50: 0.3 µg/mL
[11]; alone, 1103, read-out: 50% inhibitory concentration
  IC50: 0.023 µg/mL (≈ 0.0505 µM)
[11]; alone, U28, read-out: 50% inhibitory concentration
  IC50: 0.28 µg/mL (≈ 0.615 µM)
[11]; in the presence of LiF at 1 mg/l, 1103, read-out: 50% inhibitory concentration
  IC50: 0.01 µg/mL
[11]; in the presence of LiF at 1 mg/l, U28, read-out: 50% inhibitory concentration
  IC50: 0.16 µg/mL
[12]; alone, K12 J53, read-out: 50% inhibitory concentration
  IC50: 0.023 µg/mL (≈ 0.0505 µM)
[12]; alone, K12 PIP 55, read-out: 50% inhibitory concentration
  IC50: 0.023 µg/mL (≈ 0.0505 µM)
[12]; alone, K12 PIP 111, read-out: 50% inhibitory concentration
  IC50: 0.023 µg/mL (≈ 0.0505 µM)
[12]; alone, SOL, read-out: 50% inhibitory concentration
  IC50: 0.18 µg/mL (≈ 0.395 µM)
[12]; in the presence of LiF at 1 mg/l, K12 J53, read-out: 50% inhibitory concentration
  IC50: 0.01 µg/mL
[12]; in the presence of LiF at 1 mg/l, K12 PIP 55, read-out: 50% inhibitory concentration
  IC50: 0.023 µg/mL
[12]; in the presence of LiF at 1 mg/l, K12 PIP 111, read-out: 50% inhibitory concentration
  IC50: 0.023 µg/mL
[13]; alone, P49, read-out: 50% inhibitory concentration
  IC50: 27.2 µg/mL (≈ 59.7 µM)
[13]; alone, T45, read-out: 50% inhibitory concentration
  IC50: 0.05 µg/mL (≈ 0.11 µM)
[13]; in the presence of LiF at 1 mg/l, P49, read-out: 50% inhibitory concentration
  IC50: 23.2 µg/mL
[13]; in the presence of LiF at 1 mg/l, T45, read-out: 50% inhibitory concentration
  IC50: 0.023 µg/mL

## [F-].[Li+] [lithium fluoride]
[14]; 3 h 00, gentamicine 64 ppm
  optical density (1/100): 14 1/100
[14]; 24 h 00, gentamicine 64 ppm
  optical density (1/100): 20 1/100
[15]; 3 h 00, gentamicine 64 ppm
  optical density (1/100): 13 1/100
[15]; 6 h 00, gentamicine 64 ppm
  optical density (1/100): 15 1/100
[15]; 24 h 00, gentamicine 64 ppm
  optical density (1/100): 18 1/100
[16]; [27]
  MIC B/A: 32 µg/mL
[16]; alone, wild-type hospital strain
  MIC alone (MIC A, MIC B): 128 µg/mL
[17]
  effect on creation of resistance: retards the creation of the resistance and reduces to the half the capability of each strain for developping such resistances
[17]; against Fli, 12 days
  resistance developed by the strain: no resistance is developped
[18]
  MIC: > 32 ppm or mg/l
[19]
  MIC: > 32 ppm or mg/l
[20]
  MIC: > 32 ppm or mg/l
[21]; [27]
  MIC B/A: 16 µg/mL
[21]; alone, very resistant wild-type hospital strain
  MIC alone (MIC A, MIC B): 128 µg/mL
[22]
  MIC: ~3 ppm
  MIC, equivalent in %: ~0.0003%
[23]
  toxic activity: does not have toxic activity
[24]; [27]
  MIC B/A: 16 µg/mL
[24]; [28]
  MIC alone (MIC A, MIC B): 128 µg/mL
[25]; B (Fli) in presence of A (tetracycline)
  MIC B/A: 16 µg/mL
[25]; [28]
  MIC alone (MIC A, MIC B): 64 µg/mL
